Test [1] has as its target recombinant JAK1 (amino acids 866-1154) (Homo sapiens (Human), UniProt P23458). Kind of test: Enzyme inhibition studies, JAK1 (5 mM ATP, Caliper). It counts as biochemical. As to the method:
(§1) JAK enzyme was expressed as N-terminal GST fusion in insect cells and purified by glutathione-affinity and size-exclusion chromatographies. Enzymes were assayed at their approximated high end of physiological ATP concentration of 5 mM, in the presence of inhibitor dosed at 30, 3, 0.3, 0.03, 0.003 and 0 μM final test concentrations.
(§2) Phosphorylated and unphosphotylated peptides were separated and quantified by a Caliper LC3000 system (Caliper Life Sciences, MA) for calculating percent inhibition.

Test [2] addresses recombinant JAK3 (amino acids 781-1124) (Homo sapiens (Human), UniProt P52333). Kind of test: Enzyme inhibition studies, JAK3 (5 mM ATP, Caliper). The test is classed as biochemical. As to the method: as §1, §2
Test [3] has as its system IL-13 induced STAT6 promotor luciferase reporter in U937 monocytes (U937-STAT6-Luc). Kind of test: Cellular interleukin (IL-13) induced JAK-STAT6-luciferase assay (pSTAT6). The test is classed as cell-based. The conditions noted are these: Homo sapiens, U-937; IL-13 induced STAT6-luciferase, U937-STAT6-Luc cells. As to the method: Cells were harvested by centrifugation at 250 g for 5 min and resuspended in Assay buffer (20 mM HEPES, 1×HBSS and 0.1% BSA) to 1000 cells pr μl. For stimulation of cells was used interleukin (IL-13) also dissolved in Assay buffer to […]. […] Test and control compounds were applied to assay plates (low vol white 384-well plates) in serial dilutions from 10 mM to 0.5 nM at 5 nl pr well in DMSO.
To each well was added 4 μl cells and 4 μl interleukin (IL-13) and the plates were sealed and incubated at 37° C. for 4½ h and then at room temperature for 30 min. The assay was developed by addition of 4 μl pr well of SteadyGlo (Promega) and after […] the plates were read at an Envision plate reader with luminescence filter.

Test [4] deals with recombinant JAK2 (amino acids 831-1132) (Homo sapiens (Human), UniProt O60674). Kind of test: Enzyme inhibition studies, JAK2 (5 mM ATP, Caliper). The test is classed as biochemical. The method, then: as §1, §2
recombinant JAK2 (amino acids 831-1132), sequence (O60674 831-1132): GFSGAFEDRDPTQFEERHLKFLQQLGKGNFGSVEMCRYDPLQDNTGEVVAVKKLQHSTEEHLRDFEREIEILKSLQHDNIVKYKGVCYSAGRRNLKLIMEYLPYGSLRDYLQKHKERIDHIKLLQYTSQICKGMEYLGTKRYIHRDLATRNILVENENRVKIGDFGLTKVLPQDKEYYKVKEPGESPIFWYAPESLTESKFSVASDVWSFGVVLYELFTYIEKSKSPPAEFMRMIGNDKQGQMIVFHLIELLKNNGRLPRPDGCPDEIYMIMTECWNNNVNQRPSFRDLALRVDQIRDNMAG

recombinant JAK3 (amino acids 781-1124), sequence (P52333 781-1124): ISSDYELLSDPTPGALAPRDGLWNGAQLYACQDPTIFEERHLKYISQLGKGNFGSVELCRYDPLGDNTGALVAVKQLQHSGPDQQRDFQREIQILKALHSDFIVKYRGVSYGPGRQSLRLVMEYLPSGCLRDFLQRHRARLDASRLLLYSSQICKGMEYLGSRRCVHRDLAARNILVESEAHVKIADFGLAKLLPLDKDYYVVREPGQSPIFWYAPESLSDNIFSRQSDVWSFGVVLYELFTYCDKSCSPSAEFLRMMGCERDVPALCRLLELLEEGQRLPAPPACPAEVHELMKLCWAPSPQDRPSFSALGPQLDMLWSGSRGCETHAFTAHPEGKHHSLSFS
recombinant JAK1 (amino acids 866-1154), sequence (P23458 866-1154): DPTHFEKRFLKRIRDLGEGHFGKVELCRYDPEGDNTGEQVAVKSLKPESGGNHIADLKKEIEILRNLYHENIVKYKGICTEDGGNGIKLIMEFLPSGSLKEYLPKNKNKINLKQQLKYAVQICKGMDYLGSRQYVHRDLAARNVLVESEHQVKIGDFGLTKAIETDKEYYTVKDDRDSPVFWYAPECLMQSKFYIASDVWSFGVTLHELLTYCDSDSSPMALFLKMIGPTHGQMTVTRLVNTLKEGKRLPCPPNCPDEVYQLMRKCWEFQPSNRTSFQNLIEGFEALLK

In the case of `C[C@H](C(=O)Nc1cccc2c(-c3nc(Nc4cccc(S(C)(=O)=O)c4F)ncc3Cl)c[nH]c12)N1CCN(C)CC1` [Example 5], the half-maximal inhibitory concentration (IC50) is 5.1 nM in test [1], above 30000 nM in test [2], 29 nM in test [3] and 5020 nM in test [4].

Turning to `Cc1cnc(Nc2cccc(S(C)(=O)=O)c2F)nc1-c1c[nH]c2c(NC(=O)[C@H](C)N3CCN(C)CC3)cccc12` [Example 6, (S)-N-(3-(2-((2-fluoro-3-(methylsulfonyl)phenyl)amino)-5-methylpyrimidin-4-yl)-1H-indol-7-yl)-2-(4-methylpiperazin-1-yl)propanamide], the IC50 in test [1] was 57.4 nM; in test [2], above 30000 nM; in test [3] it was 172 nM; in test [4] it was above 30000 nM.

Take `Cc1cnc(Nc2cccc(S(C)(=O)=O)c2F)nc1-c1c[nH]c2c(NC(=O)[C@@H](C)N3C[C@H](C)N(C)[C@@H](C)C3)cccc12` [Example 7, (R)-N-(3-(2-((2-fluoro-3-(methylsulfonyl)phenyl)amino)-5-methylpyrimidin-4-yl)-1H-indol-7-yl)-2-((3S,5S)-3,4,5-trimethylpiperazin-1-yl)propanamide]: the IC50 in test [1] was 6.6 nM; in test [2], above 30000 nM; in test [3] it was 57 nM; in test [4], 14500 nM.

For `C[C@H](C(=O)Nc1cccc2c(-c3nc(Nc4cccc(S(C)(=O)=O)c4F)ncc3F)c[nH]c12)N1C[C@H](C)N(C)[C@@H](C)C1` [Example 8, (R)-N-(3-(5-fluoro-2-((2-fluoro-3-(methylsulfonyl)phenyl)amino)pyrimidin-4-yl)-1H-indol-7-yl)-2-((3S,5S)-3,4,5-trimethylpiperazin-1-yl)propanamide], the IC50 in test [1] was 24.5 nM; in test [2] it was above 30000 nM; in test [3], 78 nM; in test [4] it was above 30000 nM.

`Cc1cnc(Nc2cccc(S(C)(=O)=O)c2F)nc1-c1c[nH]c2c(NC(=O)[C@H](C)N3C[C@H](C)N[C@@H](C)C3)cccc12` [Example 10, (S)-2-((3S,5S)-3,5-dimethylpiperazin-1-yl)-N-(3-(2-((2-fluoro-3-(methylsulfonyl)phenyl)amino)-5-methylpyrimidin-4-yl)-1H-indol-7-yl)propanamide]: the IC50 in test [1] was 39.8 nM; in test [2], above 30000 nM; in test [3] it was 352 nM; in test [4], 21000 nM.

`C[C@H](C(=O)Nc1cccc2c(-c3nc(Nc4cccc(S(C)(=O)=O)c4F)ncc3F)c[nH]c12)N1C[C@H](C)N[C@@H](C)C1` [Example 11, (R)-2-((3S,5S)-3,5-dimethylpiperazin-1-yl)-N-(3-(5-fluoro-2-((2-fluoro-3-(methylsulfonyl)phenyl)amino)pyrimidin-4-yl)-1H-indol-7-yl)propanamide]: the IC50 is 13.1 nM in test [1], above 30000 nM in test [2], 85 nM in test [3] and 11100 nM in test [4].

For `C[C@H]1CN([C@@H](C)C(=O)Nc2cccc3c(-c4nc(Nc5cccc(S(C)(=O)=O)c5F)ncc4F)c[nH]c23)C[C@H](C)N1` [Example 12, (S)-2-((3S,5S)-3,5-dimethylpiperazin-1-yl)-N-(3-(5-fluoro-2-((2-fluoro-3-(methylsulfonyl)phenyl)amino)pyrimidin-4-yl)-1H-indol-7-yl)propanamide], the IC50 in test [1] is 1130 nM; in test [2], above 30000 nM; in test [3], above 4950 nM; in test [4], above 30000 nM.

As for `CC[C@@H](C(=O)Nc1cccc2c(-c3nc(Nc4cccc(S(C)(=O)=O)c4F)ncc3C)c[nH]c12)N1CCN(C)CC1` [Example 13, (S)-N-(3-(2-((2-fluoro-3-(methylsulfonyl)phenyl)amino)-5-methylpyrimidin-4-yl)-1H-indol-7-yl)-2-(4-methylpiperazin-1-yl)butanamide], the IC50 in test [1] is 22.4 nM; in test [2] it was above 30000 nM; in test [3] it was 97 nM; in test [4], 26100 nM.

Regarding `CC[C@H](C(=O)Nc1cccc2c(-c3nc(Nc4cccc(S(C)(=O)=O)c4F)ncc3C)c[nH]c12)N1CCN(C)CC1` [Example 14, (R)-N-(3-(2-((2-fluoro-3-(methylsulfonyl)phenyl)amino)-5-methylpyrimidin-4-yl)-1H-indol-7-yl)-2-(4-methylpiperazin-1-yl)butanamide], the IC50 in test [1] is below 3 nM; in test [2], above 30000 nM; in test [3], 21 nM; in test [4], 2430 nM.

Take `CC[C@H](C(=O)Nc1cccc2c(-c3nc(Nc4cccc(S(C)(=O)=O)c4F)ncc3F)c[nH]c12)N1CCCN(C)CC1` [Example 17]: the IC50 in test [1] was 3.6 nM; in test [2], above 30000 nM; in test [3] it was 90 nM; in test [4], 4860 nM.

On to `CC[C@@H](C(=O)Nc1cccc2c(-c3nc(Nc4cccc(S(C)(=O)=O)c4F)ncc3F)c[nH]c12)N1CCCN(C)CC1` [Example 18], for which the IC50 is 403 nM in test [1], above 30000 nM in test [2], 1280 nM in test [3] and above 30000 nM in test [4].

Consider `CC[C@@H](C(=O)Nc1cccc2c(-c3nc(Nc4cccc(S(C)(=O)=O)c4F)ncc3C)c[nH]c12)N1C[C@H](C)N(C)[C@@H](C)C1` [Example 19, (S)-N-(3-(2-((2-fluoro-3-(methylsulfonyl)phenyl)amino)-5-methylpyrimidin-4-yl)-1H-indol-7-yl)-2-((3S,5S)-3,4,5-trimethylpiperazin-1-yl)butanamide], for which the IC50 in test [1] was 143 nM; in test [2], above 30000 nM; in test [3] it was 423 nM; in test [4] it was above 30000 nM.

For `COC[C@@H](C(=O)Nc1cccc2c(-c3nc(Nc4cccc(S(C)(=O)=O)c4F)ncc3C)c[nH]c12)N1C[C@H](C)N(C)[C@@H](C)C1` [Example 21, (S)-N-(3-(2-((2-fluoro-3-(methylsulfonyl)phenyl)amino)-5-methylpyrimidin-4-yl)-1H-indol-7-yl)-3-methoxy-2-((3S,5S)-3,4,5-trimethylpiperazin-1-yl)propanamide], the IC50 in test [1] is 986 nM; in test [2], above 30000 nM; in test [3] it was 2230 nM; in test [4], above 30000 nM.

As for `COC[C@H](C(=O)Nc1cccc2c(-c3nc(Nc4cccc(S(C)(=O)=O)c4F)ncc3C)c[nH]c12)N1C[C@H](C)N(C)[C@@H](C)C1` [Example 22, (R)-N-(3-(2-((2-fluoro-3-(methylsulfonyl)phenyl)amino)-5-methylpyrimidin-4-yl)-1H-indol-7-yl)-3-methoxy-2-((3S,5S)-3,4,5-trimethylpiperazin-1-yl)propanamide], the IC50 in test [1] was below 3 nM; in test [2], above 30000 nM; in test [3], 29 nM; in test [4], 2560 nM.

On to `CC[C@@H](C(=O)Nc1cccc2c(-c3nc(Nc4cccc(S(C)(=O)=O)c4F)ncc3F)c[nH]c12)N1C[C@H](C)N(C)[C@@H](C)C1` [Example 23, (S)-N-(3-(5-fluoro-2-(2-fluoro-3-(methylsulfonyl)phenylamino)pyrimidin-4-yl)-1H-indol-7-yl)-2-((3S,5S)-3,4,5-trimethylpiperazin-1-yl)butanamide], for which the 50% inhibitory concentration (IC50) is 183 nM in test [1], above 30000 nM in test [2], 866 nM in test [3] and above 30000 nM in test [4].

Take `Cc1cnc(Nc2cccc(S(C)(=O)=O)c2F)nc1-c1c[nH]c2c(NC(=O)[C@@H](C)N3CCNCC3)cccc12` [Example 24, (R)-N-(3-(2-((2-fluoro-3-(methylsulfonyl)phenyl)amino)-5-methylpyrimidin-4-yl)-1H-indol-7-yl)-2-(piperazin-1-yl)propanamide]: the IC50 was 4.2 nM in test [1], above 30000 nM in test [2], 42 nM in test [3] and 3460 nM in test [4].

Regarding `Cc1cnc(Nc2cccc(S(C)(=O)=O)c2F)nc1-c1c[nH]c2c(NC(=O)[C@H](C)N3CCNCC3)cccc12` [Example 25, (S)-N-(3-(2-((2-fluoro-3-(methylsulfonyl)phenyl)amino)-5-methylpyrimidin-4-yl)-1H-indol-7-yl)-2-(piperazin-1-yl)propanamide], the IC50 was 22.8 nM in test [1], above 30000 nM in test [2], 63 nM in test [3] and 6590 nM in test [4].

For `CC[C@H](C(=O)Nc1cccc2c(-c3nc(Nc4cccc(S(C)(=O)=O)c4F)ncc3C)c[nH]c12)N1C[C@@H](C)N[C@H](C)C1` [Example 26, (R)-2-((3R,5R)-3,5-dimethylpiperazin-1-yl)-N-(3-(2-((2-fluoro-3-(methylsulfonyl)phenyl)amino)-5-methylpyrimidin-4-yl)-1H-indol-7-yl)butanamide], the IC50 in test [1] was below 3 nM; in test [2], above 30000 nM; in test [3], 38 nM; in test [4], 456 nM.

For orientation: IC50 means the point on the concentration scale where inhibition reaches its midpoint.

The values are drawn from US10961228B2, “JAK1 selective inhibitors” (AstraZeneca AB, priority 2017, dated 2021).
